Assays:
Conditions in all cases: incubation time: 72 h
BT-474 [1] = assay: normalised response (% of control), CellTiter-Glo; higher = more viable cells (100 = DMSO, 0 = benzethonium chloride kill control)
Method in brief: (§1)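 Every value is a normalised signal taken at one concentration of a dilution series. Compound was placed in 384-well plates at 5 concentrations in 10-fold steps over a compound-specific 10,000-fold range, and 20 µl of breast cancer cell suspension was seeded onto it. After 72 h, CellTox Green fluorescence (485/520 nm) was measured first and CellTiter-Glo luminescence second, following 10 min at room temperature. Each plate was scaled to 0.1 % DMSO (100) and a positive kill control (0).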

BT-549 [2] = assay: as above
Method in brief: as §1

CAL-120 [3] = assay: as above
Method in brief: as §1

CAL-148 [4] = assay: as above
Method in brief: as §1

CAL-51 [5] = assay: as above
Method in brief: as §1

CAL-85-1 [6] = assay: as above
Method in brief: as §1

DU-4475 [7] = assay: as above
Method in brief: as §1

HCC1143 [8] = assay: as above
Method in brief: as §1

HCC1599 [9] = assay: as above
Method in brief: as §1

HCC1937 [10] = assay: as above
Method in brief: as §1

HDQ-P1 [11] = assay: as above
Method in brief: as §1

Hs578T [12] = assay: as above
Method in brief: as §1

MCF-10A = assay: as above
Method in brief: as §1

MDA-MB-231 [13] = assay: as above
Method in brief: as §1

MDA-MB-436 [14] = assay: as above
Method in brief: as §1

MDA-MB-453 [15] = assay: as above
Method in brief: as §1

MDA-MB-468 [16] = assay: as above
Method in brief: as §1

MFM-223 [17] = assay: as above
Method in brief: as §1

SK-BR-3 [18] = assay: as above
Method in brief: as §1

BT-474 [19] = assay: normalised viability (% of control), CellTiter-Blue; higher = more viable cells (100 = DMSO, 0 = benzethonium chloride kill control)
Description: (§2)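 DSRT, CellTiter-Blue viability, 72 h incubation. Signal is normalised to DMSO and benzethonium chloride controls. Value is the normalised response at dose 1.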

BT-549 [20] = assay: as above
Description: as §2

CAL-120 [21] = assay: as above
Description: as §2

CAL-148 [22] = assay: as above
Description: as §2

CAL-51 [23] = assay: as above
Description: as §2

CAL-85-1 [24] = assay: as above
Description: as §2

DU-4475 [25] = assay: as above
Description: as §2

HCC1143 [26] = assay: as above
Description: as §2

HCC1599 [27] = assay: as above
Description: as §2

HCC1937 [28] = assay: as above
Description: as §2

HDQ-P1 [29] = assay: as above
Description: as §2

Hs578T [30] = assay: as above
Description: as §2

MDA-MB-231 [31] = assay: as above
Description: as §2

MDA-MB-436 [32] = assay: as above
Description: as §2

MDA-MB-453 [33] = assay: as above
Description: as §2

MDA-MB-468 [34] = assay: as above
Description: as §2

MFM-223 [35] = assay: as above
Description: as §2

SK-BR-3 [36] = assay: as above
Description: as §2

Structure (SMILES) | normalised response (BT-474 [1]) [%] | normalised response (BT-549 [2]) [%] | normalised response (CAL-120 [3]) [%] | normalised response (CAL-148 [4]) [%] | normalised response (CAL-51 [5]) [%] | normalised response (CAL-85-1 [6]) [%] | normalised response (DU-4475 [7]) [%] | normalised response (HCC1143 [8]) [%] | normalised response (HCC1599 [9]) [%] | normalised response (HCC1937 [10]) [%] | normalised response (HDQ-P1 [11]) [%] | normalised response (Hs578T [12]) [%] | normalised response (MCF-10A) [%] | normalised response (MDA-MB-231 [13]) [%] | normalised response (MDA-MB-436 [14]) [%] | normalised response (MDA-MB-453 [15]) [%] | normalised response (MDA-MB-468 [16]) [%] | normalised response (MFM-223 [17]) [%] | normalised response (SK-BR-3 [18]) [%] | normalised viability (BT-474 [19]) [%] | normalised viability (BT-549 [20]) [%] | normalised viability (CAL-120 [21]) [%] | normalised viability (CAL-148 [22]) [%] | normalised viability (CAL-51 [23]) [%] | normalised viability (CAL-85-1 [24]) [%] | normalised viability (DU-4475 [25]) [%] | normalised viability (HCC1143 [26]) [%] | normalised viability (HCC1599 [27]) [%] | normalised viability (HCC1937 [28]) [%] | normalised viability (HDQ-P1 [29]) [%] | normalised viability (Hs578T [30]) [%] | normalised viability (MDA-MB-231 [31]) [%] | normalised viability (MDA-MB-436 [32]) [%] | normalised viability (MDA-MB-453 [33]) [%] | normalised viability (MDA-MB-468 [34]) [%] | normalised viability (MFM-223 [35]) [%] | normalised viability (SK-BR-3 [36]) [%]
C=CCn1c(=O)c2cnc(Nc3ccc(N4CCN(C)CC4)cc3)nc2n1-c1cccc(C(C)(C)O)n1 [MK1775] (1 nM) | 94.4 | 101 | 92.9 | 87.4 | 114 | 101 | 96.6 | 91.4 | 105 | 97.9 | 87.7 | 95.8 | 80.6 | 90.5 | 85.8 | 90.2 | 95.2 | 85.6 | 78.3 | 90.5 | 107 | 83.5 | 99.8 | 89 | 78.4 | 86.6 | 104 | 103 | 106 | 84.2 | 106 | 95.2 | 97.9 | 104 | 105 | 94.8 | 92.9
COc1ccc(S(=O)(=O)Nc2cccnc2Nc2ccc(O)cc2)cc1 [ABT-751] (1 nM) | 98.9 | 109 | 95.8 | 97.6 | 108 | 94.6 | 103 | 96.1 | 95.8 | 96.5 | 96.8 | 101 | 91.5 | 104 | 93 | 95.2 | 98.4 | 93.9 | 84.4 | 100 | 110 | 84.7 | 96.9 | 109 | 88.4 | 96.5 | 95.5 | 90 | 90.3 | 114 | 105 | 95.8 | 85.8 | 90.5 | 102 | 92.1 | 87.2
CC(O)(CS(=O)(=O)c1ccc(F)cc1)C(=O)Nc1ccc(C#N)c(C(F)(F)F)c1 (stereo unspecified) [Bicalutamide] (1 nM) | 110 | 111 | 107 | 109 | 114 | 104 | 99 | 105 | 109 | 101 | 102 | 99 | 107 | 104 | 104 | 91.7 | 107 | 107 | 106 | 113 | 107 | 96 | 105 | 110 | 92.2 | 112 | 102 | 93.8 | 77 | 100 | 112 | 111 | 99.1 | 97.8 | 110 | 94.8 | 86.9
CC(C)C[C@H](NC(=O)[C@@H](COC(C)(C)C)NC(=O)[C@H](Cc1ccc(O)cc1)NC(=O)[C@H](CO)NC(=O)[C@H](Cc1c[nH]c2ccccc12)NC(=O)[C@H](Cc1cnc[nH]1)NC(=O)[C@@H]1CCC(=O)N1)C(=O)N[C@@H](CCCNC(=N)N)C(=O)N1CCC[C@H]1C(=O)NNC(N)=O [Goserelin] (1 nM) | 99.2 | 105 | 99.6 | 84.5 | 122 | 96.4 | 95.1 | 96.7 | 96 | 92.7 | 97.3 | 96.1 | 94.8 | 103 | 102 | 108 | 101 | 96.7 | 96.8 | 82.1 | 93.1 | 104 | 109 | 110 | 87.7 | 99.3 | 94.3 | 114 | 86.5 | 111 | 106 | 103 | 102 | 102 | 91.7 | 96 | 93.3
Nc1ccn([C@@H]2O[C@H](CO)[C@@H](O)C2(F)F)c(=O)n1 [Gemcitabine] (0.1 nM) | 97 | 98.4 | 93.6 | 96 | 101 | 94.2 | 99.9 | 92.6 | 97.4 | 95.8 | 95.1 | 106 | 99.7 | 94.5 | 102 | 107 | 95.8 | 94.5 | 93.4 | 87 | 108 | 96.5 | 103 | 105 | 96.8 | 93.5 | 101 | 89.4 | 76.1 | 111 | 114 | 94.6 | 108 | 109 | 100 | 101 | 102
C/C(=C\c1csc(C)n1)[C@@H]1C[C@@H]2O[C@]2(C)CCC[C@H](C)[C@H](O)[C@@H](C)C(=O)C(C)(C)[C@@H](O)CC(=O)N1 [Ixabepilone] (0.1 nM) | 104 | 98.8 | 95.5 | 99.3 | 80 | 97.6 | 101 | 98.5 | 115 | 98 | 100 | 100 | 107 | 103 | 105 | 127 | 104 | 103 | 108 | 90.4 | 90.8 | 78.8 | 105 | 110 | 84 | 107 | 80.9 | 97.3 | 89.2 | 97.2 | 90 | 99.1 | 104 | 93.5 | 86.7 | 78.8 | 79.6
Cn1cc(C2=C(c3cn(C4CCN(Cc5ccccn5)CC4)c4ccccc34)C(=O)NC2=O)c2ccccc21 [Enzastaurin] (1 nM) | 96.4 | 102 | 98.3 | 104 | 61.3 | 105 | 101 | 96.6 | 102 | 96.9 | 96.8 | 105 | 106 | 98.5 | 94.2 | 109 | 104 | 103 | 109 | 105 | 113 | 86.2 | 98.9 | 114 | 86.3 | 108 | 92.5 | 104 | 97.2 | 107 | 98.2 | 87.5 | 130 | 96.4 | 99 | 82.1 | 92.5
CO[C@@]12[C@H](COC(N)=O)C3=C(C(=O)C(C)=C(N)C3=O)N1C[C@@H]1N[C@@H]12 [Mitomycin C] (1 nM) | 92.3 | 105 | 94.3 | 95.3 | 82.6 | 99.7 | 95.1 | 96 | 72.6 | 94.6 | 98.8 | 101 | 93.2 | 95.1 | 82.4 | 97.5 | 90.4 | 93.9 | 100 | 86.7 | 87.3 | 93.9 | 109 | 110 | 96.3 | 104 | 98.8 | 94.8 | 106 | 118 | 134 | 87.4 | 96.9 | 102 | 94.3 | 91.1 | 90.3
